Like-named read-outs stand apart in the source and are kept apart here.
Assays:
[1] = test system: HIV-1 K103N; assay: Antiviral activity against HIV-1 mutant K103N in MT-4 cells; type: cell-based; conditions: Human immunodeficiency virus 1, MT4, read-out: EC50 K103N
[2] = comparison values; cited from earlier work
[3] = test system: HIV-1 Y181C; assay: Antiviral activity against HIV-1 mutant Y181C in MT-4 cells; type: cell-based; conditions: Human immunodeficiency virus 1, MT4, read-out: EC50 Y181C
[4] = human liver microsomes; cited from earlier work
[5] = test system: MT-4 cells; conditions: cited from earlier work
[6] = test system: HIV-1 (IIIB); assay: microbe, parasite or virus in culture; type: cell-based; conditions: for EC50: Human immunodeficiency virus 1, IIIB, MT4, WT HIV-1, protection of MT-4 cells against HIV-induced cytopathogenicity, mean ± SD, n ≥ 3
Description: (§1) Inspired by our previous research on heteroaromatic-biphenyl-DAPYs[15], the 4-cyanophenyl group on the biphenyl moiety was replaced with a privileged 4-pyridyl group for further evaluation.

[7] = test system: HIV-1 F227L + V106A; assay: microbe, parasite or virus in culture; type: cell-based; conditions: Human immunodeficiency virus 1, MT4, read-out: EC50 F227L + V106A
[8] = test system: HIV-1 L100I; assay: Antiviral activity against HIV-1 mutant L100I in MT-4 cells; type: cell-based; conditions: Human immunodeficiency virus 1, MT4, read-out: EC50 L100I
[9] = test system: HIV-1 K103N + Y181C (RES056); assay: Antiviral activity against HIV-1 double mutant K103N + Y181C (RES056) in MT-4 cells; type: cell-based; conditions: Human immunodeficiency virus 1, MT4, read-out: EC50 K103N + Y181C
[10] = target: CYP3A4-M (Homo sapiens, UniProt P08684); conditions: read-out: IC50 CYP3A4-M; cited from earlier work
Chain of CYP3A4-M (P08684 whole entry): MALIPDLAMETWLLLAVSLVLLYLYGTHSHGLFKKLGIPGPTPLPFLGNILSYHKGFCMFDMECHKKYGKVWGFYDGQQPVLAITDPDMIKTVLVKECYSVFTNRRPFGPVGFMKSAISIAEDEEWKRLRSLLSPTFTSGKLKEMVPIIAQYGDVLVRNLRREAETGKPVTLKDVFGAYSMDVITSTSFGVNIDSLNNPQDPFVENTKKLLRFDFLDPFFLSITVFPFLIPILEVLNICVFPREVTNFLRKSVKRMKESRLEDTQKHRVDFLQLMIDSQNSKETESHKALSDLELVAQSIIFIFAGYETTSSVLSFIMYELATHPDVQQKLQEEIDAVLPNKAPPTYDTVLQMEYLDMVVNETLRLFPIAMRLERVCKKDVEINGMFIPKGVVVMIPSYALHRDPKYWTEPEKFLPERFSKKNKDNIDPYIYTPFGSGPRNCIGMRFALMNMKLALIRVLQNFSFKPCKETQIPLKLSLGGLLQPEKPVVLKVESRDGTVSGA

[11] = in vitro; conditions: human, CC50
Description: as §1

[12] = test system: HIV-1 E138K; assay: Antiviral activity against HIV-1 mutant E138K in MT-4 cells; type: cell-based; conditions: Human immunodeficiency virus 1, MT4, read-out: EC50 E138K
[13] = test system: HIV-1 F227L + V106A; conditions: cited from earlier work
[14] = test system: HIV-1 Y188L; assay: Antiviral activity against HIV-1 mutant Y188L in MT-4 cells; type: cell-based; conditions: Human immunodeficiency virus 1, MT4, read-out: EC50 Y188L
[15] = test system: HIV-1 K103N + Y181C (RES056); conditions: cited from earlier work
[16] = test system: HIV-1 Y188L; conditions: cited from earlier work
[17] = test system: HIV-1 (IIIB); conditions: earlier compounds of Fig. 1 / introduction, cited from earlier work

## Cc1cc(C#N)cc(C)c1Oc1nc(Nc2ccc(C#N)cc2)nc(N)c1Br [ETR, etravirine, reference compound]
[1]
  EC50: 2.8 ± 0.7 nM
[2]
  F (oral bioavailability): undetectable
[3]
  EC50: 13 ± 2.8 nM
[4]
  CLint(liver): 19.0 mL/min/kg
  CLint(mic): 21.1 µL/min/mg
  t1/2: 1.09 h
[5]; introduction
  CC50: ~5000 nM
[6]
  EC50: 3.2 ± 0.7 nM
[7]
  EC50: 12 ± 9.4 nM
[8]
  EC50: 4.4 ± 1.6 nM
[9]
  EC50: 44 ± 23 nM
[10]
  IC50: 41300 nM
[11]
  CC50: > 4600 nM
[12]
  EC50: 7.6 ± 2.3 nM

## Cc1cnc(Nc2ccc(C#N)cc2)nc1Nc1c(F)cc(-c2ccc(C#N)cc2)cc1F [compound 6, reference compound]
[13]
  EC50: > 2000 nM
[14]
  EC50: > 2000 nM
[15]
  EC50: > 2000 nM
[1]
  EC50: 5.4 ± 1.8 nM
[3]
  EC50: 11 ± 1.9 nM
[5]; earlier compounds of Fig. 1 / introduction
  CC50: > 285000 nM
[6]
  EC50: 1.4 ± 0.3 nM
[6]; selectivity index, ratio CC50/EC50
  SI (IIIB): >208,333
[16]
  EC50: > 2000 nM
[7]
  EC50: > 2000 nM
[8]
  EC50: 16 ± 5.3 nM
[9]
  EC50: > 2000 nM
[11]
  CC50: > 285000 nM
[17]; WT HIV-1
  EC50: 1.4 nM
[17]
  SI: > 208,333
[12]
  EC50: 8.3 ± 1.5 nM

Reference: PMC12399242 (Acta Pharmaceutica Sinica. B, 2025)
